Measured values taken from patent publication US10844077B2, “Thiazolyl-containing compounds for treating proliferative diseases” (Dana-Farber Cancer Institute, Inc., priority 2014, dated 2020).
Read-outs that look alike come from different tables or passages of the source.

What was measured:
Assay type in all cases: binding
[1] = target: broad panel of kinases (Homo sapiens, UniProt P54756); conditions: EPHA5; 1 μM
[2] = target: broad panel of kinases (Homo sapiens, UniProt Q07912); conditions: TNK2; 1 μM
[3] = target: broad panel of kinases (Homo sapiens, UniProt Q04771); conditions: ACVR1; 1 μM
Chain of broad panel of kinases (Homo sapiens, UniProt Q04771) (Q04771 21-509 limits assumed): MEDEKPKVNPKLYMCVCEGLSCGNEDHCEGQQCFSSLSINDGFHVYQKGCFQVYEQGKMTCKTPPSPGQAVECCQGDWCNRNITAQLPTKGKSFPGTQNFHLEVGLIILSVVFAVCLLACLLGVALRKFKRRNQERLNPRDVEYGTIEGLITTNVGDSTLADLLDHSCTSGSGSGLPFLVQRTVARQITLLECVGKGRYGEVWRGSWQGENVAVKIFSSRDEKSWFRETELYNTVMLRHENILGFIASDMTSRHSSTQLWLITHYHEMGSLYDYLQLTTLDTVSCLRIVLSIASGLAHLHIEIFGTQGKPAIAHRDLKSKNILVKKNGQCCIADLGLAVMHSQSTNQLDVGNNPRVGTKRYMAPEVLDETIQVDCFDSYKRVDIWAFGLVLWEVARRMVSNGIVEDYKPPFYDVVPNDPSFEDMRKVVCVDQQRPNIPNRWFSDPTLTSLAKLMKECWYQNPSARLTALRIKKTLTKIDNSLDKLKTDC

[4] = target: broad panel of kinases (Homo sapiens, UniProt Q9HC98); conditions: NEK6; 1 μM
[5] = target: broad panel of kinases (Homo sapiens, UniProt Q15746); conditions: MYLK; 1 μM
[6] = target: broad panel of kinases (Homo sapiens, UniProt P07949, V804M); conditions: RET(V804M); 1 μM
Chain of broad panel of kinases (Homo sapiens, UniProt P07949, V804M) (P07949 29-1114 V804M limits assumed): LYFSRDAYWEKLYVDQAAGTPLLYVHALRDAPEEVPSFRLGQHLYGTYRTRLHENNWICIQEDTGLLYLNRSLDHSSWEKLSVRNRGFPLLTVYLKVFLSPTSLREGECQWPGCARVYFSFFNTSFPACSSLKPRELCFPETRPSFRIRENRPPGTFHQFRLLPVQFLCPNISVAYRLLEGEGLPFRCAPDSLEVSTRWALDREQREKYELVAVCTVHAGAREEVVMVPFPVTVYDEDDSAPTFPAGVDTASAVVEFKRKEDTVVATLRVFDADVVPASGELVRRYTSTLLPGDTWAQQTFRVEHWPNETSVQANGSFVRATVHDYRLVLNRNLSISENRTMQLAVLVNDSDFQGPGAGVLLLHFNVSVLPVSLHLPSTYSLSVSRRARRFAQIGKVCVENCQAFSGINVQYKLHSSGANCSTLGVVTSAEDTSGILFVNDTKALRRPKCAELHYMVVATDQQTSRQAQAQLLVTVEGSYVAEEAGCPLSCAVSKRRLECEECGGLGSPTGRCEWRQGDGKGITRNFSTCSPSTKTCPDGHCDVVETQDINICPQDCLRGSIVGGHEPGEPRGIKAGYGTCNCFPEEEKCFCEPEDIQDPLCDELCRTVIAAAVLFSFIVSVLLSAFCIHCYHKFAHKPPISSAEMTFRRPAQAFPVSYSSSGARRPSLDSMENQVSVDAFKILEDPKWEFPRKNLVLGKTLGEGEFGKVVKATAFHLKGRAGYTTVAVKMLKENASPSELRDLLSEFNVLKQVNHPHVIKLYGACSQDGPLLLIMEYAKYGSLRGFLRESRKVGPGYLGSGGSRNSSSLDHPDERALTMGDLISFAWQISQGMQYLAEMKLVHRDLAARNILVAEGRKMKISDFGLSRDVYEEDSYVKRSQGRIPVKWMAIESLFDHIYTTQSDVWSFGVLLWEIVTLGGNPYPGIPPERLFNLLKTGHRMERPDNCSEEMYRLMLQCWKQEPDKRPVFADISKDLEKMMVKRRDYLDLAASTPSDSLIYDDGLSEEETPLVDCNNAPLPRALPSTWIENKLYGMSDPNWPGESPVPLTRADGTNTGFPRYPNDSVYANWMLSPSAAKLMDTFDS

[7] = target: broad panel of kinases (Homo sapiens, UniProt Q5VT25); conditions: MRCKA; 1 μM
[8] = target: broad panel of kinases (Homo sapiens, UniProt Q86Z02); conditions: HIPK1; 1 μM
[9] = target: broad panel of kinases (Homo sapiens, UniProt Q00536); conditions: PCTK1; 1 μM
[10] = target: broad panel of kinases (Homo sapiens, UniProt O14757); conditions: CHEK1; 1 μM
[11] = target: broad panel of kinases (Homo sapiens, UniProt O15075); conditions: DCAMKL1; 1 μM
[12] = target: broad panel of kinases (Homo sapiens, UniProt P31152); conditions: ERK4; 1 μM
[13] = target: broad panel of kinases (Homo sapiens, UniProt Q13705); conditions: ACVR2B; 1 μM
Chain of broad panel of kinases (Homo sapiens, UniProt Q13705) (Q13705 19-512 limits assumed): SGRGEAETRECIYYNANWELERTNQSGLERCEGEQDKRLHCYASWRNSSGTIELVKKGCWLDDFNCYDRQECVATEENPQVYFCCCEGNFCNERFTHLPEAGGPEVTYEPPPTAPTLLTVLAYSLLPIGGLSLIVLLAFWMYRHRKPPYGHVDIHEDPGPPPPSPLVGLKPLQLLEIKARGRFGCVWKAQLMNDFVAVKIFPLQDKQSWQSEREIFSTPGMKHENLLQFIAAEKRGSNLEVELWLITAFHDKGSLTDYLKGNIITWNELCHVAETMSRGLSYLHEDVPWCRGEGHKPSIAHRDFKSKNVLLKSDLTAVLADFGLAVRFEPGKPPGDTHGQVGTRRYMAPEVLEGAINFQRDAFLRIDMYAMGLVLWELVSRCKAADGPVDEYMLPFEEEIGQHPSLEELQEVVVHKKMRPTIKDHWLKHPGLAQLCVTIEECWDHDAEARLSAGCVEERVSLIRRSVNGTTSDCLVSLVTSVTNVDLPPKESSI

[14] = target: broad panel of kinases (Homo sapiens, UniProt Q05397); conditions: FAK; 1 μM
Chain of broad panel of kinases (Homo sapiens, UniProt Q05397) (Q05397 2-1052 limits assumed): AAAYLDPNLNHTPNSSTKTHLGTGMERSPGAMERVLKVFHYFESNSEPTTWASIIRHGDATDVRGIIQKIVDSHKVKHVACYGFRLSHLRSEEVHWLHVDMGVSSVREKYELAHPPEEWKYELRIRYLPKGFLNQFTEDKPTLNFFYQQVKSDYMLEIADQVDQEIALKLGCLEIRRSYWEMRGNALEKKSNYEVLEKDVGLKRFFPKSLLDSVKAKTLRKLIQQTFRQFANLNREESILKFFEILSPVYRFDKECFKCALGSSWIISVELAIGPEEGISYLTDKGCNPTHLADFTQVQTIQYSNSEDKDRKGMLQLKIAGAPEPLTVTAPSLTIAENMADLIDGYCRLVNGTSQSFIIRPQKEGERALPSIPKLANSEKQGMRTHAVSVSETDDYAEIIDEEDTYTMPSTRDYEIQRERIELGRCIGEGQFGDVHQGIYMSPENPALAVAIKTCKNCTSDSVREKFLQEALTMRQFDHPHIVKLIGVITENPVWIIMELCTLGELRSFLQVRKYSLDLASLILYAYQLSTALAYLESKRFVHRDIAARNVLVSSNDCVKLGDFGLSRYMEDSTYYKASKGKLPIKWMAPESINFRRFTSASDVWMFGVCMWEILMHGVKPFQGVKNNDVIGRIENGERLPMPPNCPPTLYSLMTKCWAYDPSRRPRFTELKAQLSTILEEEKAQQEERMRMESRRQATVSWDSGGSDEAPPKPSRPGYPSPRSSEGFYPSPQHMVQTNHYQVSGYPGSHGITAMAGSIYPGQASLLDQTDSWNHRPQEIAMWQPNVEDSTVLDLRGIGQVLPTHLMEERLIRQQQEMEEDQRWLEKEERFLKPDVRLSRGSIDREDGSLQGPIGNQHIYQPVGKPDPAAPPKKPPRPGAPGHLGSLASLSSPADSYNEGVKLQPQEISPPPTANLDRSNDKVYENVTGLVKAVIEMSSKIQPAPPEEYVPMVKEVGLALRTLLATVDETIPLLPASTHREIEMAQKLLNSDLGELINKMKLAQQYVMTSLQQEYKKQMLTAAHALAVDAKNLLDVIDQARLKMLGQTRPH

[15] = target: broad panel of kinases (Homo sapiens, UniProt P78356); conditions: PIP5K2B; 1 μM
Chain of broad panel of kinases (Homo sapiens, UniProt P78356) (P78356 2-416 limits assumed): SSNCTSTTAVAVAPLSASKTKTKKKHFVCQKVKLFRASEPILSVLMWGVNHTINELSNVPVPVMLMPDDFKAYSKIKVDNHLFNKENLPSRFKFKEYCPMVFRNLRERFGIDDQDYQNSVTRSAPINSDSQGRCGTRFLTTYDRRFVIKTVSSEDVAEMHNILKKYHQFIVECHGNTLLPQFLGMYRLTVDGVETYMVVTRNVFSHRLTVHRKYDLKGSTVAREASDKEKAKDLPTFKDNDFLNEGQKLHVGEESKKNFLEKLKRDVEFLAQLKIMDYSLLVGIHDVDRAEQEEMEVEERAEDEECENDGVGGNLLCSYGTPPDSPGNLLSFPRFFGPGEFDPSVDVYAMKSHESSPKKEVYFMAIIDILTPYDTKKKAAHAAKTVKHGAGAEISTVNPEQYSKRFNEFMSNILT

[16] = target: broad panel of kinases (Homo sapiens, UniProt P07949, M918T); conditions: RET(M918T); 1 μM
Chain of broad panel of kinases (Homo sapiens, UniProt P07949, M918T) (P07949 29-1114 M918T limits assumed): as the sequence (P07949 29-1114 V804M limits assumed) above, with M776V, M890T counted along it

[17] = target: broad panel of kinases (Homo sapiens, UniProt Q9HBY8); conditions: SGK2; 1 μM
[18] = target: broad panel of kinases (Homo sapiens, UniProt Q9BWU1); conditions: CDK11; 1 μM
[19] = target: broad panel of kinases (Homo sapiens, UniProt P42345); conditions: MTOR; 1 μM
[20] = target: broad panel of kinases (Homo sapiens, UniProt Q9BVS4); conditions: RIOK2; 1 μM
[21] = target: broad panel of kinases (Homo sapiens, UniProt Q15418); conditions: 1 μM
[22] = target: broad panel of kinases (Homo sapiens, UniProt Q9Y6M4); conditions: CSNK1G3; 1 μM
[23] = target: broad panel of kinases (Homo sapiens, UniProt P42336, E545A); conditions: PIK3CA(E545A); 1 μM
[24] = target: broad panel of kinases (Homo sapiens, UniProt Q8NE63); conditions: HIPK4; 1 μM
[25] = target: broad panel of kinases (Homo sapiens, UniProt Q9P286); conditions: PAK7; 1 μM
[26] = target: broad panel of kinases (Homo sapiens, UniProt Q14289); conditions: PYK2; 1 μM
[27] = target: broad panel of kinases (Homo sapiens, UniProt P49137)
[28] = target: broad panel of kinases (Homo sapiens, UniProt Q9NQU5); conditions: PAK6; 1 μM
[29] = target: broad panel of kinases (Homo sapiens, UniProt P42681); conditions: TXK; 1 μM
[30] = target: broad panel of kinases (Homo sapiens, UniProt P42336, I800L); conditions: PIK3CA(I800L); 1 μM
[31] = target: broad panel of kinases (Homo sapiens, UniProt P00519, M351T); conditions: ABL1(M351T)-phosphorylated; 1 μM
[32] = target: broad panel of kinases (Homo sapiens, UniProt Q9UPE1); conditions: SRPK3; 1 μM
[33] = target: broad panel of kinases (Homo sapiens, UniProt Q9UPZ9); conditions: ICK; 1 μM
[34] = target: broad panel of kinases (Homo sapiens, UniProt Q9Y2K2); conditions: QSK; 1 μM
[35] = target: broad panel of kinases (Homo sapiens, UniProt P57078); conditions: RIPK4; 1 μM
[36] = target: broad panel of kinases (Homo sapiens, UniProt Q8TDR2); conditions: STK35; 1 μM
[37] = target: broad panel of kinases (Homo sapiens, UniProt O60674); conditions: JAK2(JH1domain-catalytic); 1 μM

Chain of broad panel of kinases (Homo sapiens, UniProt P54756) (P54756 25-1037 limits assumed): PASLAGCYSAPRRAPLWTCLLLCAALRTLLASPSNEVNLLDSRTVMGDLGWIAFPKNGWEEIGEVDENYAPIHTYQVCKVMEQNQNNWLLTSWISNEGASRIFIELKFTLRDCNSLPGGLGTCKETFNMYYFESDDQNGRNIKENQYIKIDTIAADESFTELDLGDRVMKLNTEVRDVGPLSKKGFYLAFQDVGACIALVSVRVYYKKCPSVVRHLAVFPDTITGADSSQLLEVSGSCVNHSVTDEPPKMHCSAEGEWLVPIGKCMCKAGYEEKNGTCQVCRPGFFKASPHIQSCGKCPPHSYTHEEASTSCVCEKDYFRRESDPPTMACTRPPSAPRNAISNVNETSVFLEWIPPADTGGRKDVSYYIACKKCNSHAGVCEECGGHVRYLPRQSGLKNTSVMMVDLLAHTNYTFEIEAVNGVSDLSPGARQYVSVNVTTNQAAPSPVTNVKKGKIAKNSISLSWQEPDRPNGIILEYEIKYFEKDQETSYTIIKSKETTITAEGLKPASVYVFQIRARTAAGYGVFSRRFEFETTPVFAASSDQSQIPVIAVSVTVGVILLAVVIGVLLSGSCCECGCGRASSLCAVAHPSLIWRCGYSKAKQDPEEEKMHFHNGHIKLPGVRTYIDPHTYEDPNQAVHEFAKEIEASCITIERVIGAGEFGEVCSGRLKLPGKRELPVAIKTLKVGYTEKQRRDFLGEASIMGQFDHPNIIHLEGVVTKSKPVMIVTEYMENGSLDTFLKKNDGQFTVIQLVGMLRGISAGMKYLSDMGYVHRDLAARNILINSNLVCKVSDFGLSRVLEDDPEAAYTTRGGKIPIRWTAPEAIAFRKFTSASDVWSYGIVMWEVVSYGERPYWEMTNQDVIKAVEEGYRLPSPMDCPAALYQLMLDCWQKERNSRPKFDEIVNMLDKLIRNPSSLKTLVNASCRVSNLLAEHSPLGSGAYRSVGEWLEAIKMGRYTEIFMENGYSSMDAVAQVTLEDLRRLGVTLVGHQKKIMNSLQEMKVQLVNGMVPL

Compound	percent of control binding remaining (lower = stronger binding) [1] [%]	percent of control binding remaining (lower = stronger binding) [2] [%]	percent of control binding remaining (lower = stronger binding) [3] [%]	percent of control binding remaining (lower = stronger binding) [4] [%]	percent of control binding remaining (lower = stronger binding) [5] [%]	percent of control binding remaining (lower = stronger binding) [6] [%]	percent of control binding remaining (lower = stronger binding) [7] [%]	percent of control binding remaining (lower = stronger binding) [8] [%]	percent of control binding remaining (lower = stronger binding) [9] [%]	percent of control binding remaining (lower = stronger binding) [10] [%]	percent of control binding remaining (lower = stronger binding) [11] [%]	percent of control binding remaining (lower = stronger binding) [12] [%]	percent of control binding remaining (lower = stronger binding) [13] [%]	percent of control binding remaining (lower = stronger binding) [14] [%]	percent of control binding remaining (lower = stronger binding) [15] [%]	percent of control binding remaining (lower = stronger binding) [16] [%]	percent of control binding remaining (lower = stronger binding) [17] [%]	percent of control binding remaining (lower = stronger binding) [18] [%]	percent of control binding remaining (lower = stronger binding) [19] [%]	percent of control binding remaining (lower = stronger binding) [20] [%]	further results
C=CC(=O)N1CC[C@H](Nc2nc(CN3CCOCC3)cc(Nc3ncc(C(=O)Nc4c(C)cccc4C)s3)n2)C1 [Example I-2]	0.95	31	74	100	85	100	65	93	97	88	87	90	78	100	98	92	72	98	100	92	percent of control binding remaining (lower = stronger binding) ([21]; RSK1(Kin.Dom.1-N-terminal)): 73%; percent of control binding remaining (lower = stronger binding) ([21]; RSK1(Kin.Dom.2-C-terminal)): 100%; percent of control binding remaining (lower = stronger binding) [22]: 96%; percent of control binding remaining (lower = stronger binding) [23]: 100%; percent of control binding remaining (lower = stronger binding) [24]: 100%; percent of control binding remaining (lower = stronger binding) [25]: 96%; percent of control binding remaining (lower = stronger binding) [26]: 100%; % change compared to control [27]: 100%; percent of control binding remaining (lower = stronger binding) [28]: 93%; percent of control binding remaining (lower = stronger binding) [29]: 0.6%; percent of control binding remaining (lower = stronger binding) [30]: 76%; percent of control binding remaining (lower = stronger binding) [31]: 0.6%; percent of control binding remaining (lower = stronger binding) [32]: 100%; percent of control binding remaining (lower = stronger binding) [33]: 86%; percent of control binding remaining (lower = stronger binding) [34]: 36%; percent of control binding remaining (lower = stronger binding) [35]: 95%; percent of control binding remaining (lower = stronger binding) [36]: 99%; percent of control binding remaining (lower = stronger binding) [37]: 65%
C=CC(=O)N1CC[C@H](Nc2nccc(Nc3ncc(C(=O)Nc4c(C)cccc4C)s3)n2)C1 [Example I-3]	0.85	43	100	64	93	100	88	95	100	84	84	62	95	100	100	99	76	83	100	77	percent of control binding remaining (lower = stronger binding) ([21]; RSK1(Kin.Dom.1-N-terminal)): 91%; percent of control binding remaining (lower = stronger binding) ([21]; RSK1(Kin.Dom.2-C-terminal)): 100%; percent of control binding remaining (lower = stronger binding) [22]: 95%; percent of control binding remaining (lower = stronger binding) [23]: 100%; percent of control binding remaining (lower = stronger binding) [24]: 97%; percent of control binding remaining (lower = stronger binding) [25]: 97%; percent of control binding remaining (lower = stronger binding) [26]: 100%; % change compared to control [27]: 100%; percent of control binding remaining (lower = stronger binding) [28]: 84%; percent of control binding remaining (lower = stronger binding) [29]: 0.7%; percent of control binding remaining (lower = stronger binding) [30]: 89%; % change compared to control [31]: 0.7%; percent of control binding remaining (lower = stronger binding) [32]: 97%; percent of control binding remaining (lower = stronger binding) [33]: 87%; percent of control binding remaining (lower = stronger binding) [34]: 50%; percent of control binding remaining (lower = stronger binding) [35]: 100%; percent of control binding remaining (lower = stronger binding) [36]: 100%; percent of control binding remaining (lower = stronger binding) [37]: 82%
